In brackets after ≈: the same amount, converted by molar mass. Several values for one entry are separate records, joined by “and”; a condition that tells them apart may be missing. Equal entries are not always repeated. Where two headings read alike, the source gives them in different places.
Experiments:
[1] = test system: Plasmodium falciparum chloroquine-susceptible strain D6; experiment: In vitro antimalarial drug susceptibility assay (radiolabeled hypoxanthine incorporation), strain D6; format: cell-based; conditions: for Strain D6 IC50: growth inhibition, chloroquine-susceptible strain D6, 66 h incubation; for IC50: Plasmodium falciparum, D6, 66 h, read-out: Strain D6 IC50, growth inhibition, chloroquine-susceptible strain D6, 66 h incubation
[2] = test system: Plasmodium falciparum chloroquine-resistant strain W2; experiment: microbe, parasite or virus in culture; format: cell-based; conditions: for Strain W2 IC50: growth inhibition, chloroquine-resistant strain W2, 66 h incubation; for IC50: Plasmodium falciparum, W2, 66 h, read-out: Strain W2 IC50, growth inhibition, chloroquine-resistant strain W2, 66 h incubation
[3] = test system: D6 and W2 P. falciparum clones; format: cell-based, Plasmodium falciparum; conditions: for Resistance Index: IC50 (W2)/IC50 (D6) ratio
[4] = test system: Mycobacterium tuberculosis H37Rv (ATCC 27294); experiment: Primary screen, Microplate Alamar Blue Assay (MABA), percent inhibition; format: cell-based; conditions: Table 5, Alamar assay, primary screening at 6.25 μg/ml; for inhibition at 6.25 µg/mL: Mycobacterium tuberculosis, read-out: % Inhib
Method: (§1) The activity of the compounds of the present invention against Mycobacterium tuberculosis was determined using the following assays conducted by the National Institute of Allergy and Infectious Diseases (NIAID) supports a TB drug acquisition and screening program, the TAACF.
To determine the percent inhibition the following assay was conducted. Primary screening was conducted at 6.25 μg/ml (or the molar equivalent of highest molecular weight compound in a given series of congeners) against Mycobacterium tuberculosis H37Rv (ATCC 27294) in BACTEC 12B medium using the Microplate Alamar Blue Assay (MABA). See Collins, L. and S. G. Franzblau. 1997. Microplate alamar blue assay versus BACTEC 460 system for high-throughput screening of compounds against Mycobacterium tuberculosis and Mycobacterium avium. Antimicrob Agents Chemother 41:1004-9, which is herein incorporated by reference.
Minimum compound requirements: 1.0 mg.

M. tuberculosis H37Rv = experiment: Minimum inhibitory concentration (MIC) in the MABA; format: cell-based, Mycobacterium tuberculosis
Method: as §1
2. Minimum Inhibitory Concentration (MIC)
The MIC is defined as the lowest concentration effecting a reduction in fluorescence of 90% relative to controls. Minimum compound requirements: 1.0 mg.

VERO cells [5] = conditions: for IC50: Table 5, VERO cells
VERO cells [6] = experiment: cells; conditions: Chlorocebus sabaeus, Table 5
[7] = Table 5, Alamar assay, M. tuberculosis H37Rv
[8] = ratio of IC50 in VERO cells to MIC (M. tuberculosis H37Rv)
[9] = Mycobacterium tuberculosis, H37RV, Table 5, Alamar assay, M. tuberculosis H37Rv, read-out: MIC

| SMILES | Strain D6 IC50 [1] [ng/mL] | Strain W2 IC50 [2] [ng/mL] | Resistance Index [3] | % Inhib [4] [%] | MIC (M. tuberculosis H37Rv; [7]) [µg/mL] | SI (selectivity index) (VERO cells [5]; [8]) | IC50 (VERO cells [6]) [µg/mL] | IC50 [2] [ng/mL] | inhibition at 6.25 µg/mL [4] [%] | MIC (M. tuberculosis H37Rv; [9]) [µg/mL] | IC50 [1] [µg/mL] | IC50 (VERO cells [5]) [µg/mL] | Resistance Index ([3]; listed as 12) | antimalarial activity in words ([3]; D6 and W2 clones, Table 2) | MIC (M. tuberculosis H37Rv; Mycobacterium tuberculosis, H37RV, Table 3, H37Rv, read-out: MIC) | SI (selectivity index) (VERO cells [5]) |
| --- | --- | --- | --- | --- | --- | --- | --- | --- | --- | --- | --- | --- | --- | --- | --- | --- |
| CCC1CCC2(CC1)OOC1(CC[C@]3(C)C4C[C@H](OC(C)=O)[C@@]5(C)C(CC[C@@H]5C(C)CCC(=O)O)C4[C@H](OC(C)=O)C[C@@H]3C1)OO2 (single isomer, unassigned) [9j/1C39, 7α,12α-Diacetoxy-5β-cholan-24-oic acid-3-spiro-6′-(1′,2′,4′,5′-tetraoxacyclohexane)-3′-spiro-1″-((4″S or R)-ethyl)cyclohexane] | 6.38 | 9.36 | 1.47 | 95 | 6.25 (≈ 9.63 µM) | 0.15 | 0.95 (≈ 1.46 µM) | – | – | – | – | – | – | – | – | – |
| CCC1CCC2(CC1)OOC1(CC[C@]3(C)C4C[C@H](OC(C)=O)[C@@]5(C)C(CC[C@@H]5C(C)CCC(N)=O)C4[C@H](OC(C)=O)C[C@@H]3C1)OO2 (single isomer, unassigned) [25/1C35, 7α,12α-Diacetoxy-5β-cholan-24-amide-3-spiro-6′-(1′,2′,4′,5′-tetraoxacyclohexane)-3′-spiro-1″-((4″R or S)-ethyl)cyclohexane] | 5.44 | – | 1.27 | – | – | 1.48 | 4.65 (≈ 7.18 µM) | 6.93 (≈ 0.0107 µM) | 100 | 3.13 (≈ 4.83 µM) | – | – | – | – | – | – |
| CCC1CCC2(CC1)OOC1(CC[C@]3(C)C4C[C@H](OC(C)=O)[C@@]5(C)C(CC[C@@H]5C(C)CCC(=O)NC)C4[C@H](OC(C)=O)C[C@@H]3C1)OO2 (single isomer, unassigned) [26/1C36, N-Methyl-7α,12α-Diacetoxy-5β-cholan-24-amide-3-spiro-6′-(1′,2′,4′,5′-tetraoxacyclohexane)-3′-spiro-1″-((4″R or S)-ethyl)cyclohexane] | 4.77 | – | 1.08 | – | 1.56 (≈ 2.36 µM) | 1.17 | 1.83 (≈ 2.76 µM) | 5.17 (≈ 0.00781 µM) | 99 | – | – | – | – | – | – | – |
| CCNC(=O)CCC(C)[C@H]1CCC2C3C(C[C@H](OC(C)=O)[C@@]21C)[C@@]1(C)CCC2(C[C@H]1C[C@H]3OC(C)=O)OOC1(CCC(CC)CC1)OO2 (single isomer, unassigned) [27/1C37, N-Ethyl-7α,12α-Diacetoxy-5β-cholan-24-amide-3-spiro-6′-(1′,2′,4′,5′-tetraoxacyclohexane)-3′-spiro-1″-((4″R or S)-ethyl)cyclohexane] | – | – | 0.48 | – | 1.56 (≈ 2.31 µM) | 1.22 | 1.91 (≈ 2.83 µM) | 6.46 (≈ 0.00956 µM) | 96 | – | 0.0134 (≈ 0.0198 µM) | – | – | – | – | – |
| CCCNC(=O)CCC(C)[C@H]1CCC2C3C(C[C@H](OC(C)=O)[C@@]21C)[C@@]1(C)CCC2(C[C@H]1C[C@H]3OC(C)=O)OOC1(CCC(CC)CC1)OO2 (single isomer, unassigned) [28/1C38, N-(n-Propyl)-7α,12α-Diacetoxy-5β-cholan-24-amide-3-spiro-6′-(1′,2′,4′,5′-tetraoxacyclohexane)-3′-spiro-1″-((4″R or S)-ethyl)cyclohexane] | 5.76 | 3.12 | 0.54 | 92 | – | 0.36 | 2.28 (≈ 3.3 µM) | – | – | 6.25 (≈ 9.06 µM) | – | – | – | – | – | – |
| CCC1CCC2(CC1)OOC1(CC[C@]3(C)C4C[C@H](OC(C)=O)[C@@]5(C)C(CC[C@@H]5C(C)CCC(=O)NC)C4[C@H](OC(C)=O)C[C@@H]3C1)OO2 (single isomer, unassigned) [30/1C41, N-Methyl-7α,12α-Diacetoxy-5β-cholan-24-amide-3-spiro-6′-(1′,2′,4′,5′-tetraoxacyclohexane)-3′-spiro-1″-((4″S or R)-ethyl)cyclohexane] | 18.50 | 4.07 | 0.22 | 99 | 3.13 (≈ 4.73 µM) | 0.50 | – | – | – | – | – | 1.59 (≈ 2.4 µM) | – | – | – | – |
| CC(=O)O[C@H]1CC2C(C3CC[C@H](C(C)CCC(N)=O)[C@]31C)[C@H](OC(C)=O)C[C@@H]1CC3(CC[C@]21C)OOC1(CCCCC1)OO3 (stereo partly drawn) [10/1C19, 7α,12α-Diacetoxy-5β-cholan-24-amide-3-spiro-6′-(1′,2′,4′,5′-tetraoxacyclohexane)-3′-spirocyclohexane] | – | – | 0.40 | – | – | 0.79 | 4.94 (≈ 7.97 µM) | 2.94 (≈ 0.00474 µM) | 99 | 6.25 (≈ 10.1 µM) | 0.00733 (≈ 0.0118 µM) | – | – | – | – | – |
| COC(=O)CNC(=O)CCC(C)[C@H]1CCC2C3C(C[C@H](OC(C)=O)[C@@]21C)[C@@]1(C)CCC2(C[C@H]1C[C@H]3OC(C)=O)OOC1(CCCCC1)OO2 (stereo partly drawn) [12/1C21, N-(Methyl ethanoate-2-yl)-7α,12α-diacetoxy-5β-cholan-24-amide-3-spiro-6′-(1′,2′,4′,5′-tetraoxacyclohexane)-3′-spirocyclohexane] | – | – | 0.49 | – | – | 0.87 | 5.42 (≈ 7.83 µM) | 7.45 (≈ 0.0108 µM) | 99 | 6.25 (≈ 9.03 µM) | 0.0152 (≈ 0.022 µM) | – | ca. 0.5 | – | – | – |
| CNC(=O)CCC(C)[C@H]1CCC2C3C(C[C@H](OC(C)=O)[C@@]21C)[C@@]1(C)CCC2(C[C@H]1C[C@H]3OC(C)=O)OOC1(CCCCC1C)OO2 (stereo partly drawn) [14/1C23, N-Methyl-7α,12α-diacetoxy-5β-cholan-24-amide-3-spiro-6′-(1′,2′,4′,5′-tetraoxacyclohexane)-3′-spiro-1″-(2″-methyl)cyclohexane] | – | – | 0.64 | – | – | 1.8 | 5.63 (≈ 8.69 µM) | 6.49 (≈ 0.01 µM) | 99 | 3.13 (≈ 4.83 µM) | 0.0102 (≈ 0.0158 µM) | – | – | – | – | – |
| CC(=O)O[C@H]1CC2C(C3CC[C@H](C(C)CCC(N)=O)[C@]31C)[C@H](OC(C)=O)C[C@@H]1CC3(CC[C@]21C)OOC1(CCC(C)CC1)OO3 (stereo partly drawn) [21/1C30, 7α,12α-Diacetoxy-5β-cholan-24-amide-3-spiro-6′-(1′,2′,4′,5′-tetraoxacyclohexane)-3′-spiro-1″-((4″S)-methyl)cyclohexane] | 12.70 | 8.94 | 0.70 | 99 | 6.25 (≈ 9.86 µM) | 0.39 | – | – | – | – | – | 2.43 (≈ 3.83 µM) | – | – | – | – |
| CNC(=O)CCC(C)[C@H]1CCC2C3C(C[C@H](OC(C)=O)[C@@]21C)[C@@]1(C)CCC2(C[C@H]1C[C@H]3OC(C)=O)OOC1(CCC(C)CC1)OO2 (stereo partly drawn) [22/1C31, N-Methyl-7α,12α-diacetoxy-5β-cholan-24-amide-3-spiro-6′-(1′,2′,4′,5′-tetraoxacyclohexane)-3′-spiro-1″-((4″S)-methyl)cyclohexane] | 10.79 | 7.69 | 0.71 | 99 | 6.25 (≈ 9.65 µM) | 0.29 | – | – | – | – | – | 1.83 (≈ 2.82 µM) | – | – | – | – |
| CCNC(=O)CCC(C)[C@H]1CCC2C3C(C[C@H](OC(C)=O)[C@@]21C)[C@@]1(C)CCC2(C[C@H]1C[C@H]3OC(C)=O)OOC1(CCC(C)CC1)OO2 (stereo partly drawn) [23/1C32, N-Ethyl-7α,12α-diacetoxy-5β-cholan-24-amide-3-spiro-6′-(1′,2′,4′,5′-tetraoxacyclohexane)-3′-spiro-1″-((4″S)-methyl)cyclohexane] | 10.32 | 6.57 | 0.64 | 21 | >6.25 | – | – | – | – | – | – | – | – | – | – | – |
| CCCNC(=O)CCC(C)[C@H]1CCC2C3C(C[C@H](OC(C)=O)[C@@]21C)[C@@]1(C)CCC2(C[C@H]1C[C@H]3OC(C)=O)OOC1(CCC(C)CC1)OO2 (stereo partly drawn) [24/1C33, N-(n-Propyl)-7α,12α-diacetoxy-5β-cholan-24-amide-3-spiro-6′-(1′,2′,4′,5′-tetraoxacyclohexane)-3′-spiro-1″-((4″S)-methyl)cyclohexane] | 57.41 | 56.11 | 0.98 | 0 | >6.25 | – | – | – | – | – | – | – | – | inactive | – | – |
| NNC(=O)c1ccncc1 [Isoniazid, reference compound] | – | – | – | – | – | – | > 1000 | – | – | 0.025 to 0.05 (≈ 0.182 to 0.365 µM) | – | – | – | – | 0.05 µg/mL and 0.36 µM | > 40,000 |

Reference: patent US6906098B2, “Mixed steroidal 1,2,4,5-tetraoxane compounds and methods of making and using thereof” (priority 2002, dated 2005)
